This assay concerns the target T1, I‐A^b MHC II molecules (Mus musculus, UniProt P14434+P14483).
T1 construct: endogenous in cells; host or cells: mouse B-cell lymphoma LB27.4
T1 sequence (P14434 24-256): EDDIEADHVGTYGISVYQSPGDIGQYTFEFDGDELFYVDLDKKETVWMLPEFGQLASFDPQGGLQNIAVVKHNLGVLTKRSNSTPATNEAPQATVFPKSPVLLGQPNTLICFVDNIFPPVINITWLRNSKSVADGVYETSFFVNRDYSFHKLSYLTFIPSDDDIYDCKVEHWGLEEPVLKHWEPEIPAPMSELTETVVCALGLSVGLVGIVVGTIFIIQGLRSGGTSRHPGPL
T1 sequence (P14483 28-265): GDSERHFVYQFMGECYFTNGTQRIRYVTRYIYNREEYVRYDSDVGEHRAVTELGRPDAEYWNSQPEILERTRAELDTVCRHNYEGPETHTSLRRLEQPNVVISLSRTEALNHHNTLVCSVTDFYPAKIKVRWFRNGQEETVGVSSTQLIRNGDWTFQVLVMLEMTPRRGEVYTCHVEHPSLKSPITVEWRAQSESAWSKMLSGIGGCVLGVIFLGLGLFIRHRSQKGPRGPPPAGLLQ
The assay is described as follows: I-A^b binding assay: inhibition of binding of a high-affinity radiolabeled peptide. Particulars: competition with radiolabeled peptide ROIV (0.1–1 nM); purified I-A^b from LB27.4 B-cell lymphoma; room temperature, 2-day incubation; six concentrations; IC50 approximates Kd. The method, then:
We used mass spectrometry to globally characterize Pb antigenic peptides presented by MHC II on the surface of DC (Fig 1A). We immunoprecipitated the MHC II molecules from a splenic DC tumor cell line called MutuDC (Fuertes Marraco et al, 2012), incubated with Pb‐parasitized RBC (pRBC). Peptide‐loaded MHC II are trimers of I‐A^bα chain, I‐A^bβ chain, and antigenic peptide, which, depending on the affinity of the loaded peptide, can remain stable in SDS without prior boiling (Natarajan et al, 1999). To ensure that our protocol allowed the pull‐down of peptide‐MHC II trimers and not just of single I‐A^bβ chain, we compared the migration of eluates with and without prior boiling, confirming that the immunoprecipitated material was SDS‐stable (Fig 1B). Although genetically very close to PbA (Otto et al, 2014), several variants of Pb causing different pathophysiological outcomes have been described (de Souza et al, 2010). Pb K173 (PbK) being the most “distant” from PbA (although SNPs were found only in 469 of […]; Otto et al, 2014), we decided to perform this analysis both with PbA and PbK pRBC. This led to the identification of a total of 372 unique I‐A^b‐eluted peptides, comprising 330 mouse sequences and 42 Pb sequences (Fig 1C, Dataset EV1), derived from 13 putative Pb antigenic proteins (Dataset EV2). In line with the modest level of polymorphisms between PbA and PbK, none of those source antigens was polymorphic. Remarkably, for seven antigens, we recovered multiple peptides containing a core of 11–16 amino acids (aa) and various N‐ or C‐terminal extensions (Dataset EV2). This feature is a typical property of MHC II ligands (Bozzacco et al, 2011; Sofron et al, 2016). For each set of nested peptides, we further analyzed the longest spanning sequence comprising all recovered sequences, for example, NALYNYSIPRPNVTSNL for ETRAMP10.2 (PBANKA_0517000) or […] for LDH (PBANKA_1340100), resulting in a consolidated list of 14 peptides (Table 1). We evaluated the I‐A^b binding affinity of these 14 peptides by quantifying their ability to inhibit binding of a high‐affinity radiolabeled peptide (Sidney et al, 2013).
Purification of I‐A^b MHC II molecules by affinity chromatography and the assay based on the inhibition of binding of a high‐affinity radiolabeled peptide to quantitatively measure peptide binding were described elsewhere (Sidney et al, 2013). Briefly, the mouse B‐cell lymphoma LB27.4 was used as a source of MHC molecules. A high‐affinity radiolabeled peptide (0.1–1 nM; peptide ROIV, sequence YAHAAHAAHAAHAAHAA) was co‐incubated at room temperature with purified MHC in the presence of a cocktail of protease inhibitors and an inhibitor peptide. Following a 2‐day incubation, MHC‐bound radioactivity was determined by capturing MHC/peptide complexes on mAb (Y3JP)‐coated Lumitrac 600 plates (Greiner Bio‐one), and measuring bound cpm using the TopCount (Packard Instrument Co) microscintillation counter. The concentration of peptide yielding 50% inhibition of the binding of the radiolabeled peptide was calculated. Under the conditions utilized, where [label] < [MHC] and IC50 ≥ [MHC], the measured IC50 values are reasonable approximations of the true Kd values. Each competitor peptide was tested at six different concentrations covering a 100,000‐fold range. The “cold” probe was used as a positive control in each experiment.

Among the data in paper PMC5666312, “Profiling MHC II immunopeptidome of blood‐stage malaria reveals that cDC1 control the functionality of parasite‐specific CD4 T cells” (EMBO Molecular Medicine, 2017) are IC50 values, retold here.

As a reminder, the IC50 is the point on the concentration scale where inhibition reaches its midpoint. A higher IC50 goes with weaker potency in that assay.

Where no end group is shown, it is not given here.

APSEQTTTPEAATAASN [MSP1] gave a half-maximal inhibitory concentration (IC50) of 1.35 µM.

Take NALYNYSIPRPNVTSNL [ETRAMP]: the IC50 came to 0.087 µM.

As to LHASPYVAPAAAIIEMAE [LDH], the concentration for half-maximal inhibition (IC50) was determined as 0.11 µM.

Take LMTTVHASTANQLVV [GAPDH.2]: the IC50 was determined as 0.98 µM.

GGSTYIAAKVNEAKD [TIM14] came in with an IC50 of 0.302 µM.

In turn, INDRNFIATTALSSTEE [AMA1] gave an IC50 of 0.818 µM.

Sequence LIPEYNEAAIMLSEKK [PDI] came in with an IC50 of 0.166 µM.

TTLGIFRAAVPSGASTG [ENO]: the half-maximal inhibitory concentration (IC50) was 0.115 µM.

Consider SGKVVEENPKAIKSGDS [EF1a], for which the IC50 stood at 2.7 µM.

Sequence TEVPSLVPPTTNTSHAAPAH [MAHRP] yielded an IC50 of 0.872 µM.

DNEYDFSGKAALVYGQ [ATPSYN] had a concentration for half-maximal inhibition (IC50) of 0.104 µM.

As to LSEVVIHPETNYALTG [M1], the IC50 was found to be 15.9 µM.

For GINHEKYNSSQTIVSNAS [GAPDH.1], the concentration for half-maximal inhibition (IC50) was 2.42 µM.

In the case of KILYNSAKPNSDLH [END70], the IC50 came to 0.478 µM.
